Literature values as cited in patent publication US20110091459A1, “IMIDAZOLE MODULATORS OF MUSCARINIC ACETYLCHOLINE RECEPTOR M3” (AUSPEX PHARMACEUTICALS, INC., priority 2008, published 2011).

Columns and labels:
[1] = metabolite formed by CYP2A6 mediated hydroxylation of the lactone ring
[2] = in vivo
[3] = in vivo; remark: listed apart in the source

half-life [3]	SMILES	pharmacological activity [1]	adverse effects [2]
	CC[C@@]1(O)C(=O)OC[C@H]1Cc1cncn1C [3-hydroxypilocarpine]	pharmacologically inactive	
45.6 to 81 min	CC[C@@H]1C(=O)OC[C@@H]1Cc1cncn1C [Pilocarpine, (3S,4R)-3-ethyl-4-((1-methyl-1H-imidazol-5-yl)methyl)dihydrofuran-2(3H)-one]		blurred vision, nightblindness, and pulmonary edema
